# Assay results published in US5120738A, “Pantothenic acid derivatives” (Fujirebio Inc., priority 1990, dated 1992).
# Target: T1, acyl CoA-cholesterol-acyltransferase (ACAT) (Rattus norvegicus, UniProt Q7TQM4)
# T1 construct: a microsome fraction prepared from a rat liver; from tissue; host or cells: rat liver microsome fraction
# T1 sequence (Q7TQM4 1-524): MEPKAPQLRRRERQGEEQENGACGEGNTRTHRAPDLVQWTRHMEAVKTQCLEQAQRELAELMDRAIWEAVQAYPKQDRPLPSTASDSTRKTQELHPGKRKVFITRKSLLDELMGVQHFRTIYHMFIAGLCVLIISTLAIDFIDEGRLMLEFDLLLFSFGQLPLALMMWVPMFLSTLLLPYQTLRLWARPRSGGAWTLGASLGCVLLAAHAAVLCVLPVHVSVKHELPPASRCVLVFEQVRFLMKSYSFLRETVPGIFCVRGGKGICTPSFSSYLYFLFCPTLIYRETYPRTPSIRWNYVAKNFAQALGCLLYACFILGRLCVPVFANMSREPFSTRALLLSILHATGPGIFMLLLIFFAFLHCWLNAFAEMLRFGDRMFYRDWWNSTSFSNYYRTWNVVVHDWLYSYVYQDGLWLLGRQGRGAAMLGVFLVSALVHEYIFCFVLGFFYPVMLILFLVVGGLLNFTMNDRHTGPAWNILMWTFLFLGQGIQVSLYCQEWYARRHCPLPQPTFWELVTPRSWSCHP
# Assay: ACAT inhibition test (cholesteryl oleate formed from [1-14C]oleoylCoA, rat liver microsome fraction)
# Assay type: biochemical
# Conditions: for inhibition at 1 µM: 10^-6 M test drug, 37° C., 4 minutes, relative to control without test compound; for IC50: in square brackets behind the % inhibition, range in parentheses not explained, read-out: ACAT inhibition [IC50 × 10^-7 M]
# Method: ACAT inhibition tests were carried out by measuring cholesteryl oleate produced from [1-^14 C]oleoylCoA and endocellular cholesterol similarly to the method of Helgerud et al. [cf.
# Thereafter, 4.2 ml of methanol and 8.3 ml of chloroform were added to the reaction mixture to stop the reaction. Then, 2.5 ml of water was added and after shaking the mixture sufficiently a chloroform layer was separated. After concentrating it, the chloroform layer was subjected to thin layer chromatography. The cholesteryl oleate formed was separated and its radioactivity was measured by a liquid scientilaltion counter.
# On the other hand, the same tests as above were repeated without using test compounds. The radioactivity of the control thus obtained was used as a standard for calculating the ACAT inhibiting activity of each test compound.
Structure (SMILES),inhibition at 1 µM [%],IC50 [nM]
"CCCCCCCC/C=C\CCCCCCCC(=O)N1CCCC(NC(=O)CCNC(=O)C2OC(C)(C)OCC2(C)C)C1 (single isomer, unassigned) [Example 171]",61.1,
"CCCCCCCC/C=C\CCCCCCCC(=O)Nc1ccccc1NC(=O)CCNC(=O)C1OC(C)(C)OCC1(C)C (stereo not drawn) [Example 1, N-[2-(Oleoylamino)phenyl]-3-[N-(2,2,5,5-tetramethyl-1,3-dioxane-4-carbonyl)amino]propanamide]",,295
"CCCCCCCC/C=C\CCCCCCCC(=O)Nc1ccccc1NC(=O)CCNC(=O)C(OC(C)=O)C(C)(C)COC(C)=O (stereo not drawn) [Example 2, N-[2-(Oleoylamino)phenyl]-3-[N-(2,4-diacetoxy-3,3-dimethyl-1-oxobutyl)amino]propanamide]",64.8,274
"CCCCC/C=C\C/C=C\CCCCCCCC(=O)Nc1ccccc1NC(=O)CCNC(=O)C1OC(C)(C)OCC1(C)C (stereo not drawn) [Example 4, N-2-(Linoleoylamino)phenyl]-3-[[N-(2,2,5,5-tetramethyl-1,3-dioxane-4-carbonyl)amino]propanamide]",79.8,
CC/C=C\C/C=C\C/C=C\CCCCCCCC(=O)Nc1ccccc1NC(=O)CCNC(=O)C1OC(C)(C)OCC1(C)C (stereo not drawn) [Example 5],56,
"CCCCC/C=C\C/C=C\CCCCCCCC(=O)Nc1cccc(NC(=O)CCNC(=O)C2OC(C)(C)OCC2(C)C)c1 (stereo not drawn) [Example 9, [N-3-(Linoleylamino)phenyl]-3-[N-(2,2,5,5-tetramethyl-1,3-dioxane-4-carbonyl)amino]propanamide]",51.8,
"CCCCCCCC/C=C\CCCCCCCC(=O)Nc1ccccc1OC(=O)CCNC(=O)C1OC(C)(C)OCC1(C)C (stereo not drawn) [Example 15, 2-(Oleoylamino)phenyl 3-[N-(2,2,5,5-tetramethyl-1,3-dioxane-4-carbonyl)amino]propionate]",79.6,
CCCCCCCC/C=C\CCCCCCCC(=O)NCCNC(=O)CCNC(=O)C1OC(C)(C)OCC1(C)C (stereo not drawn) [Example 33],,299
CCCCCCCC/C=C\CCCCCCCC(=O)NCCCNC(=O)CCNC(=O)C1OC(C)(C)OCC1(C)C (stereo not drawn) [Example 34],,385
"CCCCCCCC/C=C\CCCCCCCC(=O)NCCCCNC(=O)CCNC(=O)C1OC(C)(C)OCC1(C)C (stereo not drawn) [Example 37, N-(4-Oleoylaminobutyl)-3-[N-(2,2,5,5-tetramethyl-1,3-dioxane-4-carbonyl)amino]propanamide]",,286
"CCCCCCCC/C=C\CCCCCCCC(=O)NCCOC(=O)CCNC(=O)C1OC(C)(C)OCC1(C)C (stereo not drawn) [Example 44, 2-(N-Oleoylamino)ethyl 3-[N-(2,2,5,5-tetramethyl-1,3-dioxane-4-carbonyl)amino]propionate]",,686
"CCCCCCCC/C=C\CCCCCCCC(=O)NCCCOC(=O)CCNC(=O)C1OC(C)(C)OCC1(C)C (stereo not drawn) [Example 47, 3-(N-oleoylamino]propyl 3-[N-(2,2,5,5-tetramethyl-1,3-dioxane-4-carbonyl)amino]propionate]",,250
CCCCCCCC/C=C\CCCCCCCC(=O)NCCCCCOC(=O)CCNC(=O)C1OC(C)(C)OCC1(C)C (stereo not drawn) [Example 66],,355
CCCCCCCC/C=C\CCCCCCCC(=O)NCCCCCCOC(=O)CCNC(=O)C1OC(C)(C)OCC1(C)C (stereo not drawn) [Example 67],,389
"CCCCCCCC/C=C\CCCCCCCC(=O)N[C@H]1CCCC[C@@H]1NC(=O)CCNC(=O)C1OC(C)(C)OCC1(C)C (stereo partly drawn) [Example 70, N-[(1S,2S)-2-(Oleoylamino)cyclohexane]-3-[N-(2,2,5,5-tetramethyl-1,3-dioxane-4-carbonyl)amino]propanamide]",,162
CCCCCCCC/C=C\CCCCCCCC(=O)N[C@H]1CCCC[C@@H]1NC(=O)CCNC(=O)[C@H](OC(C)=O)C(C)(C)COC(C)=O [Example 71],,198
"CCCCCCCC/C=C\CCCCCCCC(=O)N[C@H]1CCCC[C@@H]1NC(=O)CCNC(=O)[C@H](O)C(C)(C)CO [Example 74, N-[(1S,2S)-2-(Oleoylamino)cyclohexane-1-yl]-3-[N-[(2R)-2,4-dihydroxy-3,3-dimethyl-1-oxobutyl]amino]propanamide]",,155
"CCCCCCCC/C=C\CCCCCCCC(=O)N[C@@H]1CCCC[C@H]1OC(=O)CCNC(=O)C1OC(C)(C)OCC1(C)C (stereo partly drawn) [Example 77, (1R,2R)-2-(Oleoylamino)cyclohexane-1-yl 3-[N-(2,2,5,5-tetramethyl-1,3-dioxane-4-carbonyl)amino]propionate]",,210
"CCCCCCCC/C=C\CCCCCCCC(=O)N[C@H]1CCCC[C@@H]1OC(=O)CCNC(=O)C1OC(C)(C)OCC1(C)C (stereo partly drawn) [Example 78, (1S,2S)-2-(Oleoylamino)cyclohexane-1-yl 3-[N-(2,2,5,5-tetramethyl-1,3-dioxane-4-carbonyl)amino]propionate]",,40.1
"CCCCC/C=C\C/C=C\CCCCCCCC(=O)N[C@H]1CCCC[C@@H]1OC(=O)CCNC(=O)C1OC(C)(C)OCC1(C)C (stereo partly drawn) [Example 80, (1S,2S)-2-(Linoleoylamino)cyclohexane-1-yl 3-[N-(2,2,5,5-tetramethyl-1,3-dioxane-4-carbonyl)amino]propionate]",,108
CCCCCCCC/C=C\CCCCCCCC(=O)NC[C@@H]1CCCN1C(=O)CCNC(=O)C(O)C(C)(C)CO (stereo partly drawn) [Example 166],65.7,
CCCCCCCC/C=C\CCCCCCCC(=O)NC[C@H]1CCCN1C(=O)CCNC(=O)C1OC(C)(C)OCC1(C)C (stereo partly drawn) [Example 167],64,
CCCCCCCC/C=C\CCCCCCCC(=O)NC1CCCN(C(=O)CCNC(=O)C2OC(C)(C)OCC2(C)C)C1 (stereo not drawn) [Example 168],75.7,
CCCCCCCC/C=C\CCCCCCCC(=O)NC1CCCN(C(=O)CCNC(=O)C(O)C(C)(C)CO)C1 (stereo not drawn) [Example 169],58.3,
CCCCCCCC/C=C\CCCCCCCC(=O)N1CCN(C(=O)CCNC(=O)C(O)C(C)(C)CO)CC1 (stereo not drawn) [Example 193],18.9,
"CCCCCCCC/C=C\CCCCCCCC(=O)N1CCCN(C(=O)CCNC(=O)C(OC(C)=O)C(C)(C)COC(C)=O)CC1 (stereo not drawn) [Example 194, 1-Oleoyl-4-(1-oxo-3-N-(1-oxo-2,4-diacetoxy-3,3-dimethylbutyl)aminopropyl)tetrahydro-1,4-diazepine]",62.6,
CCCCCCCC/C=C\CCCCCCCC(=O)N1CCCN(C(=O)CCNC(=O)C(O)C(C)(C)CO)CC1 (stereo not drawn) [Example 195],48.7,
CCCCCCCCC=CCCCCCCCNC(=O)N1CCN(C(=O)CCNC(=O)C2OC(C)(C)OCC2(C)C)CC1 (stereo not drawn) [Example 198],84.3,
CCCCCCCCCCC(C)C(=O)N1CCN(C(=O)CCNC(=O)C2OC(C)(C)OCC2(C)C)CC1 (stereo not drawn) [Example 199],53.7,
